We go through 25 compounds from PubChem BioAssay AID652027 (The Scripps Research Institute Molecular Screening Center, 2013).

Calls of active or inactive are those of the source.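 The calls were made as follows: active = STAT3 reporter signal fold change below 0.5 at 10 µM; inactive = the rest.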

This experiment deals with U3A cells, IL-6 STAT3 luciferase reporter, luminescence. Nature of the experiment: STAT3 signaling inhibitors in reporter cells, late-stage follow-up, counter-screen for STAT5 inhibitor project, U3A cells, luminescence, assay provider run (AID 652027). As to conditions: at 10 µM; hits give low values. (A counterscreen serves to expose hits that act by an unwanted route or on another target.)
Consider `Cc1cc[n+](CC(=O)/C=C2\N(C)c3ccccc3C2(C)C)cc1`, for which the fold change is 0.68 (inactive). With `CN1/C(=C\C(=O)C[n+]2cccc(-c3ccccc3)c2)C(C)(C)c2ccccc21`, the fold change is 0.55 (inactive).

Turning to `CCOC(=O)C1CCCN(CC(=O)/C=C2/N(C)c3ccccc3C2(C)C)C1` (stereo not given), the fold change is 1.16 (inactive). Next, `CN1/C(=C\C(=O)CN2C(=O)c3ccccc3S2(=O)=O)C(C)(C)c2ccccc21`: 0.82 (inactive); `CN1/C(=C\C(=O)Cn2c(=O)c(C#N)cn(C)c2=O)C(C)(C)c2ccccc21`: 1.03 (inactive); `CN1/C(=C\C(=O)C[n+]2ccccc2)C(C)(C)c2ccccc21`: 0.77 (inactive).

As to `COc1cccc2cc(C(=O)C[n+]3ccc4ccccc4c3)c(=O)oc12`, the fold change is 1.17 (inactive).

`COC(=O)C1CCCCN1CC(=O)/C=C1/N(C)c2ccccc2C1(C)C` (stereo not given): the fold change was 1.04 (inactive). Take `O=C(C[n+]1ccc2ccccc2c1)c1ccccc1`: the fold change is 1.04 (inactive).

Regarding `COc1ccc2oc(=O)c(C(=O)C[n+]3ccc4ccccc4c3)cc2c1`, the fold change was 1.15 (inactive). In the case of `CN1/C(=C\C(=O)CN2C(=O)C3CC=CCC3C2=O)C(C)(C)c2ccccc21` (stereo not given), the fold change was 0.7 (inactive). Next, `CC(C)(C)C(=O)C[n+]1ccc2ccccc2c1`: 0.93 (inactive). As for `CN1/C(=C\C(=O)CN2CCCC2)C(C)(C)c2ccccc21`, the fold change is 0.72 (inactive).

On to `CN1/C(=C\C(=O)CN2C(=O)c3ccccc3C2=O)C(C)(C)c2ccccc21`, for which the fold change was 0.87 (inactive).

Turning to `O=C(C[n+]1ccc2ccccc2c1)c1cc2ccccc2oc1=O`, the fold change is 0.84 (inactive). As for `CN1/C(=C\C(=O)Cn2cnc3ccc(Cl)cc3c2=O)C(C)(C)c2ccccc21`, the figure is 0.92 (inactive). Next, `O=C(C[n+]1ccc2ccccc2c1)c1ccc2ccccc2c1`: 1.34 (inactive); `Cc1cc[n+](CC(=O)/C=C2\N(C)c3ccccc3C2(C)C)c(C)c1`: 0.61 (inactive). In the case of `O=C(C[n+]1ccc2ccccc2c1)Nc1ccccc1`, the fold change was 1.74 (inactive).

Consider `CN1/C(=C\C(=O)CN2C(=O)c3ccc([N+](=O)[O-])cc3C2=O)C(C)(C)c2ccccc21`, for which the fold change is 0.77 (inactive).

Turning to `CN1/C(=C\C(=O)Cn2cc(C(F)(F)F)ccc2=O)C(C)(C)c2ccccc21`, the fold change was 1.09 (inactive). Next, `CN1/C(=C\C(=O)CN2C(=O)NC(C)(c3ccc(Cl)cc3)C2=O)C(C)(C)c2ccccc21` (stereo not given): 0.75 (inactive); `CN1/C(=C\C(=O)CN2CCc3ccccc3C2)C(C)(C)c2ccccc21`: 1.28 (inactive). In the case of `CN1/C(=C\C(=O)CN2C(=O)c3ccccc3CS2(=O)=O)C(C)(C)c2ccccc21`, the fold change was 0.65 (inactive). As for `CN1/C(=C\C(=O)Cn2nnc(-c3ccccc3)n2)C(C)(C)c2ccccc21`, the figure is 0.62 (inactive).
